According to patent publication US20070178152A1, “Carboxyalkylcellulose esters for administration of poorly soluble pharmaceutically active agents” (priority 2005, published 2007):
Several values for one entry are separate records, joined by “and”; a condition that tells them apart may be missing. Equal values may be shown once.

Assay: Dissolution of glyburide and glyburide solid dispersions in SIFsp, pH 6.8
Assay type: physicochemical
Design: drug released per capsule, Table 18C (quantity not headed): unit not given here
Settings: for % Drug Released / Total Drug Released / Normalized Drug Released / drug released per capsule, Table 18C (quantity not headed): gelatin capsule
Experimental: All dissolution studies were performed on a Varian VK7025 Dissolution Apparatus equipped with a Varian VK8000 Fraction Collector
HPLC Methods for Evaluating Dissolution Aliquots:
Determination of Weight % Phenytoin, Carbamazepine, Glyburide, or Griseofulvin.
Mobile Phase: 55% acetonitrile/45% ammonium acetate buffer (2.6 g NH4OAc/L H2O with pH adjusted to pH˜5.25 with glacial acetic acid)
Column: Agilent Eclipse XDB-C8, 4.6 mm×150 mm×5 μm
Detection: UV 254 nm (UV 214 nm can also be used for phenytoin or carbamazepine, UV 291 nm can also be used for griseofulvin); typically five signals were selected from UV 214 nm, 222 nm, 254 nm, 287 nm, 291 nm, and/or 325 nm were collected for each sample.
Preparation of Glyburide Standard Curves
Glyburide reference standard from USP was dried as directed (106° C. for six hours), then approximately 20-25 mg of glyburide are added to a 25-mL volumetric flask and dissolved in DMSO or 55% acetonitrile/45% ammonium acetate, pH 5.25. The volume was diluted to 25 mL. A set of standard dilutions were prepared either using 10-mL volumetric flasks or Rainin automatic pipetmen.
Simulated Intestinal Fluid, without pancreatin, pH 6.8 (SIFsp, pH 6.8)—Added monobasic potassium phosphate (KH2PO4, 34 g) to a 4000-mL beaker. Added deionized/polished water (2000 mL) and mixed using a magnetic stir bar until the KH2PO4 is completely dissolved. Added 0.2 N sodium hydroxide (NaOH, 590 mL) and stirred. The pH was adjusted to pH 6.8±0.1 using 0.2 N NaOH. The sample was diluted with deionized/polished water to a final volume of 5000 mL.
The SIFsp media was heated to ˜45° C. in four 2000-mL Kimax bottles in an oven. The sample was degassed according to USP protocol by filtering through a 0.45 μm membrane filter (Pall, Supor-450, 0.45 μm, 90 mm, part # 60200, Lot # 43214) and stirring under vacuum for 5 minutes.
Dissolution Conditions #1.
Dissolution Conditions #2.
These Examples describe the dissolution of glyburide and glyburide solid Dispersions by evaluating the samples described in Examples 109-117. SlFsp, pH 6.8 media preperation was described in the Materials and Methods section.
Samples were transferred into gelatin capsules (Capsugel, size OCS, Lot #624282) using a manual single capsule filler. The weight of each capsule and the amount of sample added are found in Table 18 (Capsule Description).
These Examples describe the dissolution of glyburide and glyburide solid dispersions by evaluating the samples described in Examples 119-124. SIFsp, pH 6.8 media preperation was described in the Materials and Methods section.
Samples were transferred into gelatin capsules (Capsugel, size OCS, Lot # 624282) using a manual single capsule filler. The weight of each capsule and the amount of sample added are found in Tables 19 and 20 (Capsule Description).

SMILES: COc1ccc(Cl)cc1C(=O)NCCc1ccc(S(=O)(=O)NC(=O)NC2CCCCC2)cc1 [Glyburide]
- Average % Released (10 min, average of capsules): 0.1549%
- Average % Released (10 min, average of vessels): 0.0373%
- % Drug Released (10 min, single vessel): 0.0362% and 0.0355% and 0.0403%
- Total Drug Released (15 min, single vessel): 0.0321 mg
- Average % Released (20 min, average of capsules): 1.0081%
- Average % Released (20 min, average of vessels): 0.2490%
- Normalized Drug Released (20 min): 0.7201 mg and 0.7299 mg
- drug released per capsule, Table 18C (quantity not headed) (20 min): 1.0149 and 1.0013
- % Drug Released (20 min, single vessel): 0.0355% and 0.2912% and 0.4202%
- Average % Released (30 min, average of capsules): 1.2315%
- Average % Released (30 min, average of vessels): 0.4372%
- Normalized Drug Released (30 min): 0.8728 mg and 0.8986 mg
- drug released per capsule, Table 18C (quantity not headed) (30 min): 1.2495 and 1.2136
- % Drug Released (30 min, single vessel): 0.4237% and 0.4293% and 0.4587%
- Total Drug Released (45 min, single vessel): 0.3834 mg and 0.3424 mg and 0.4071 mg
- Average % Released (60 min, average of capsules): 1.7763%
- Average % Released (60 min, average of vessels): 0.5522%
- Normalized Drug Released (60 min): 1.2890 mg and 1.2660 mg
- drug released per capsule, Table 18C (quantity not headed) (60 min): 1.7923 and 1.7603
- % Drug Released (60 min, single vessel): 0.4365% and 0.5720% and 0.6480%
- Total Drug Released (60 min, single vessel): 0.3950 mg and 0.4562 mg and 0.5752 mg
- Total Drug Released (90 min, single vessel): 0.6124 mg and 0.6166 mg and 0.7677 mg
- Average % Released (120 min, average of capsules): 2.1001%
- Average % Released (120 min, average of vessels): 0.7716%
- Normalized Drug Released (120 min): 1.5740 mg and 1.4468 mg
- drug released per capsule, Table 18C (quantity not headed) (120 min): 2.1886 and 2.0117
- % Drug Released (120 min, single vessel): 0.6767% and 0.7732% and 0.8649%
- Total Drug Released (120 min, single vessel): 0.7134 mg and 0.7222 mg and 0.8356 mg
- Total Drug Released (150 min, single vessel): 0.8270 mg and 0.8369 mg and 0.9711 mg
- Average % Released (180 min, average of capsules): 2.2533%
- Average % Released (180 min, average of vessels): 0.8784%
- Normalized Drug Released (180 min): 1.6724 mg and 1.5688 mg
- drug released per capsule, Table 18C (quantity not headed) (180 min): 2.3253 and 2.1813
- % Drug Released (180 min, single vessel): 0.7882% and 0.9056% and 0.9414%
- Total Drug Released (180 min, single vessel): 0.8919 mg and 0.9402 mg and 0.9572 mg
- Total Drug Released (210 min, single vessel): 0.9428 mg and 0.9956 mg and 1.4143 mg
- Average % Released (240 min, average of capsules): 2.3376%
- Average % Released (240 min, average of vessels): 1.0191%
- Normalized Drug Released (240 min): 1.7153 mg and 1.6471 mg
- Total Drug Released (240 min): 0.1934 mg and 0.1252 mg
- drug released per capsule, Table 18C (quantity not headed) (240 min): 2.3850 and 2.2902
- % Drug Released (240 min, single vessel): 0.9138% and 1.0495% and 1.0941%
- Total Drug Released (240 min, single vessel): 1.0358 mg and 1.0726 mg and 1.2243 mg
- Average % Released (300 min, average of capsules): 2.4335%
- Average % Released (300 min, average of vessels): 1.0810%
- Normalized Drug Released (300 min): 1.7802 mg and 1.7202 mg
- Total Drug Released (300 min): 0.2583 mg and 0.1982 mg
- drug released per capsule, Table 18C (quantity not headed) (300 min): 2.4752 and 2.3918
- % Drug Released (300 min, single vessel): 0.9855% and 1.1790% and 1.0784%
- Average % Released (360 min, average of capsules): 2.5067%
- Average % Released (360 min, average of vessels): 1.2945%
- Normalized Drug Released (360 min): 1.8465 mg and 1.7592 mg
- Total Drug Released (360 min): 0.3246 mg and 0.2373 mg
- drug released per capsule, Table 18C (quantity not headed) (360 min): 2.5674 and 2.4461
- % Drug Released (360 min, single vessel): 1.0417% and 1.2484% and 1.5934%
- Average % Released (450 min, average of capsules): 2.5617%
- Average % Released (450 min, average of vessels): 1.2896%
- Normalized Drug Released (450 min): 1.8424 mg
- Total Drug Released (450 min): 0.3205 mg
- drug released per capsule, Table 18C (quantity not headed) (450 min): 2.5617
- % Drug Released (450 min, single vessel): 1.1444% and 1.3449% and 1.3793%
